{"source": "paper PMC5603227", "about": "(ChemMedChem, 2017)", "format_in_all_cases": "cell-based, Mycobacterium tuberculosis", "key": {"[1]": {"tested_on": "Isoniazid resistant strain derived from H37Rv Mtb, katG mutant (Y155*)"}, "[2]": {"tested_on": "Rifampicin resistant strain ACTCC35838", "test": "microbe, parasite or virus in culture", "details": "for MIC: Mycobacterium tuberculosis, ACTCC35838, read-out: MIC RIF res2"}, "[3]": {"tested_on": "Isoniazid resistant strain ACTCC35822", "test": "microbe, parasite or virus in culture", "details": "for MIC: Mycobacterium tuberculosis, ACTCC35822, read-out: MIC INH res2"}, "[4]": {"tested_on": "Fluoroquinolone resistant strain derived from H37Rv Mtb, gyrA mutant (D94N)"}, "[5]": {"tested_on": "Rifampicin resistant strain derived from H37Rv Mtb, ropB mutant (S522L)"}}}
{"compound": "CO[C@H]1/C=C/O[C@@]2(C)Oc3c(C)c(O)c4c(O)c(c(/C=N/N5CCN(C)CC5)c(O)c4c3C2=O)NC(=O)/C(C)=C\\C=C\\[C@H](C)[C@H](O)[C@@H](C)[C@@H](O)[C@@H](C)[C@H](OC(C)=O)[C@@H]1C", "note": "[RIF, Rifampicin, reference compound]", "values": [{"measurement": "MIC INH res1", "setting": "[1]", "result": 0.027, "unit": "µM"}, {"measurement": "MIC", "setting": "[2]", "result": "> 50", "unit": "µM"}, {"measurement": "MIC", "setting": "[3]", "result": 0.013, "unit": "µM"}, {"measurement": "MIC FQ res", "setting": "[4]", "result": 0.043, "unit": "µM"}, {"measurement": "MIC RIF res1", "setting": "[5]", "result": 3.2, "unit": "µM"}]}
{"compound": "Cc1ccn2c(C(=O)NCc3ccc(S(F)(F)(F)(F)F)cc3)c(C)nc2c1", "note": "[Compound 13, 2,7-Dimethyl-N-(4-(pentafluoro-λ^6-sulfanyl)benzyl)imidazo[1,2-a]pyridine-3-carboxamide]", "values": [{"measurement": "MIC INH res1", "setting": "[1]", "result": 0.070, "unit": "µM"}, {"measurement": "MIC", "setting": "[2]", "result": 0.52, "unit": "µM"}, {"measurement": "MIC", "setting": "[3]", "result": 0.24, "unit": "µM"}, {"measurement": "MIC FQ res", "setting": "[4]", "result": 0.36, "unit": "µM"}, {"measurement": "MIC RIF res1", "setting": "[5]", "result": 0.079, "unit": "µM"}]}
{"compound": "Cc1ccc2nc(C)c(C(=O)NCc3cccc(S(F)(F)(F)(F)F)c3)n2c1", "note": "[Compound 16, 2,6-Dimethyl-N-(3-(pentafluoro-λ^6-sulfanyl)benzyl)imidazo[1,2-a]pyridine-3-carboxamide]", "values": [{"measurement": "MIC INH res1", "setting": "[1]", "result": 3.1, "unit": "µM"}, {"measurement": "MIC", "setting": "[2]", "result": 7.2, "unit": "µM"}, {"measurement": "MIC", "setting": "[3]", "result": 2.4, "unit": "µM"}, {"measurement": "MIC FQ res", "setting": "[4]", "result": 2.7, "unit": "µM"}, {"measurement": "MIC RIF res1", "setting": "[5]", "result": 0.35, "unit": "µM"}]}
{"compound": "Cc1ccn2c(C(=O)NCc3cccc(S(F)(F)(F)(F)F)c3)c(C)nc2c1", "note": "[Compound 14, 2,7-Dimethyl-N-(3-(pentafluoro-λ^6-sulfanyl)benzyl)imidazo[1,2-a]pyridine-3-carboxamide]", "values": [{"measurement": "MIC INH res1", "setting": "[1]", "result": 3.4, "unit": "µM"}, {"measurement": "MIC", "setting": "[2]", "result": 0.13, "unit": "µM"}, {"measurement": "MIC", "setting": "[3]", "result": 4, "unit": "µM"}, {"measurement": "MIC FQ res", "setting": "[4]", "result": 2.5, "unit": "µM"}, {"measurement": "MIC RIF res1", "setting": "[5]", "result": 1.3, "unit": "µM"}]}
{"compound": "Cc1cn2c(C(=O)NCc3ccc(S(F)(F)(F)(F)F)cc3)c(C)nc2s1", "note": "[Compound 19, 2,6-Dimethyl-N-(4-(pentafluoro-λ^6-sulfanyl)benzyl)imidazo[2,1-b]thiazole-5-carboxamide]", "values": [{"measurement": "MIC INH res1", "setting": "[1]", "result": 0.60, "unit": "µM"}, {"measurement": "MIC", "setting": "[2]", "result": 0.64, "unit": "µM"}, {"measurement": "MIC", "setting": "[3]", "result": 0.39, "unit": "µM"}, {"measurement": "MIC FQ res", "setting": "[4]", "result": 0.33, "unit": "µM"}, {"measurement": "MIC RIF res1", "setting": "[5]", "result": 0.26, "unit": "µM"}]}
{"compound": "CCc1nc2ccc(Cl)cn2c1C(=O)NCc1ccc(S(F)(F)(F)(F)F)cc1", "note": "[Compound 17, 6-Chloro-2-ethyl-N-(4-(pentafluoro-λ^6-sulfanyl)benzyl)imidazo[1,2-a]pyridine-3-carboxamide]", "values": [{"measurement": "MIC INH res1", "setting": "[1]", "result": 0.051, "unit": "µM"}, {"measurement": "MIC", "setting": "[2]", "result": 0.022, "unit": "µM"}, {"measurement": "MIC", "setting": "[3]", "result": 0.021, "unit": "µM"}, {"measurement": "MIC FQ res", "setting": "[4]", "result": 0.083, "unit": "µM"}, {"measurement": "MIC RIF res1", "setting": "[5]", "result": 0.0089, "unit": "µM"}]}
{"compound": "Cc1ccc2nc(C)c(C(=O)NCc3ccc(S(F)(F)(F)(F)F)cc3)n2c1", "note": "[Compound 15, 2,6-Dimethyl-N-(4-(pentafluoro-λ^6-sulfanyl)benzyl)imidazo[1,2-a]pyridine-3-carboxamide]", "values": [{"measurement": "MIC INH res1", "setting": "[1]", "result": 0.044, "unit": "µM"}, {"measurement": "MIC", "setting": "[2]", "result": 0.016, "unit": "µM"}, {"measurement": "MIC", "setting": "[3]", "result": 0.011, "unit": "µM"}, {"measurement": "MIC FQ res", "setting": "[4]", "result": 0.021, "unit": "µM"}, {"measurement": "MIC RIF res1", "setting": "[5]", "result": 0.0060, "unit": "µM"}]}
{"compound": "Levoflaxacin [reference compound]", "values": [{"measurement": "MIC INH res1", "setting": "[1]", "result": 3.97, "unit": "µM"}, {"measurement": "MIC RIF res2", "setting": "[2]; ACTCC35838", "result": 3.83, "unit": "µM"}, {"measurement": "MIC INH res2", "setting": "[3]; ACTCC35822", "result": 5.83, "unit": "µM"}, {"measurement": "MIC FQ res", "setting": "[4]", "result": 91, "unit": "µM"}, {"measurement": "MIC RIF res1", "setting": "[5]", "result": 3.43, "unit": "µM"}]}
{"compound": "NNC(=O)c1ccncc1", "note": "[INH, Isoniazid, reference compound]", "values": [{"measurement": "MIC INH res1", "setting": "[1]", "result": ">200", "unit": "µM"}, {"measurement": "MIC", "setting": "[2]", "result": 0.37, "unit": "µM"}, {"measurement": "MIC", "setting": "[3]", "result": "> 200", "unit": "µM"}, {"measurement": "MIC FQ res", "setting": "[4]", "result": 0.34, "unit": "µM"}, {"measurement": "MIC RIF res1", "setting": "[5]", "result": 0.160, "unit": "µM"}]}
{"compound": "CCc1nc2ccc(Cl)cn2c1C(=O)NCc1cccc(S(F)(F)(F)(F)F)c1", "note": "[Compound 18, 6-Chloro-2-ethyl-N-(3-(pentafluoro-λ^6-sulfanyl)benzyl)imidazo[1,2-a]pyridine-3-carboxamide]", "values": [{"measurement": "MIC INH res1", "setting": "[1]", "result": 2.9, "unit": "µM"}, {"measurement": "MIC", "setting": "[2]", "result": 0.5, "unit": "µM"}, {"measurement": "MIC", "setting": "[3]", "result": 2.7, "unit": "µM"}, {"measurement": "MIC FQ res", "setting": "[4]", "result": 2.9, "unit": "µM"}, {"measurement": "MIC RIF res1", "setting": "[5]", "result": 1.5, "unit": "µM"}]}
